In patent US20130096105A1, “ArylSulfonamide Based Matrix Metalloprotease Inhibitors” (NOVARTIS AG, priority 2008, published 2013):
Blank lines part the entries; values can stand above or below the molecule they belong to.

Columns and labels:
Gelatinase (MMP-2) = target: T1, Gelatinase (MMP-2) (Homo sapiens, UniProt P08253); assay: Gelatinase (MMP-2) inhibitory activity, fluorogenic peptide substrate cleavage; type: biochemical; conditions: read-out: MMP02 IC50
T1 sequence (P08253 110-660): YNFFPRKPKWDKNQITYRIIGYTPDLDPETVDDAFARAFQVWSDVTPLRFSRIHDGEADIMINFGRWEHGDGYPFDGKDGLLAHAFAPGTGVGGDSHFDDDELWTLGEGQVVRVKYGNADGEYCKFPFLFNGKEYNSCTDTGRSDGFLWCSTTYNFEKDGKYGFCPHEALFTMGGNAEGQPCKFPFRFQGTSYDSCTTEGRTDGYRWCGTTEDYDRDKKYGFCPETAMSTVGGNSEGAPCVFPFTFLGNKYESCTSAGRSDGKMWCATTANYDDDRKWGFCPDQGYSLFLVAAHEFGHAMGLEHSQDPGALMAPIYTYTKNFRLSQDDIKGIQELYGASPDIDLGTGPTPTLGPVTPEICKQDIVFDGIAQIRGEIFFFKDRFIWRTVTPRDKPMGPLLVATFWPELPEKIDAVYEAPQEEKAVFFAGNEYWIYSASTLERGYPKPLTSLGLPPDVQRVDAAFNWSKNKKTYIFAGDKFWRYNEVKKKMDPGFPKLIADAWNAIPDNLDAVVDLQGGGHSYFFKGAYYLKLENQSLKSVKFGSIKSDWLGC
Description: (§1) Gelatinase (MMP-2) inhibitory activities can be determined as follows: Stock solutions of substrate (MCA-Lys-Pro-Leu-Gly-Leu-Dpa-Ala-Arg-NH2) are prepared in DMSO at a concentration of 1.4 mM. Stock solutions of inhibitors (0.03 μM-3 mM) are also prepared in DMSO. The inhibitors are diluted into the assay solutions, and the controls use an equal volume of DMSO so that the final DMSO concentration from the inhibitor and substrate dilutions in all assays is 1.0%. Assays are performed in an assay buffer (100 mM sodium chloride, 10 μM ZnCl. Sub 2, 10 mM CaCl2, 100 mM Tris-Cl pH7.5, 0.05% Brij-35), containing 1.0% DMSO from the substrate and inhibitor additions. The substrate concentration used in the assays is 5 μM. The assays are carried out at 20-25° C. The fluorescence changes, as a result of substrate cleavage, are monitored using an excitation wavelength of 325 nm and an emission wavelength of 405 nm. The reaction mixtures are added in duplicate into appropriate wells of a 384-well assay plate. The reaction mixtures are preincubated with the inhibitors for 60 minutes The reactions are started by the addition of MMP substrate, and the fluorescence intensity changes are measured after 60 minutes The apparent enzyme activity in the presence of an inhibitor is then compared with that in the absence of any inhibitor to determine the inhibition effect of the inhibitor. These techniques are within the knowledge of one skilled in the art. The inhibition results are expressed as the inhibitor concentrations required to effect 50% inhibition (IC50) of the enzyme activity, as compared with the control (non-inhibited) reactions.

Collagenase-3 (MMP-13) = Collagenase-3 (MMP-13) (Homo sapiens, UniProt P45452); assay: Collagenase-3 (MMP-13) inhibitory activity, fluorogenic peptide substrate cleavage; type: biochemical; conditions: read-out: MMP13 IC50
Description: as §1
Collagenase-3 (MMP-13) inhibitory activity is determined as described above. Recombinant pro-collagenase-3 is activated with 1 mM APMA, and stored in the assay buffer after extensive dialysis in the assay buffer.

Molecule: 2-Chloro-5-(3-hydroxy-4-methoxy-benzoyl)-benzenesulfonamide [Example 56]
IC50 (Gelatinase (MMP-2)): > 30 µM | IC50 (Collagenase-3 (MMP-13)): 26.7 µM

Molecule: 2-Chloro-5-(4-cyclopropyl-benzoyl)-benzenesulfonamide [Example 27]
IC50 (Gelatinase (MMP-2)): 7.46 µM | IC50 (Collagenase-3 (MMP-13)): 9.64 µM

Molecule: 2-Chloro-5-(4-pyridin-4-yl-benzoyl)-benzenesulfonamide [Example 42]
IC50 (Gelatinase (MMP-2)): 0.51 µM | IC50 (Collagenase-3 (MMP-13)): 1.5 µM

Molecule: 2-Chloro-5-(4-thiophen-2-yl-benzoyl)-benzenesulfonamide [Example 39]
IC50 (Gelatinase (MMP-2)): 13.3 µM | IC50 (Collagenase-3 (MMP-13)): 9.06 µM

Molecule: COc1ccc(C(=O)c2ccc(F)c(S(N)(=O)=O)c2)cc1 [Example 2, 2-Fluoro-5-(4-methoxy-benzoyl)-benzenesulfonamide]
IC50 (Gelatinase (MMP-2)): 2.41 µM | IC50 (Collagenase-3 (MMP-13)): 1.59 µM

Molecule: COc1ccc(C(=O)c2cc(F)c(F)c(S(N)(=O)=O)c2)cc1 [Example 4, 2,3-Difluoro-5-(4-methoxy-benzoyl)-benzenesulfonamide]
IC50 (Gelatinase (MMP-2)): 4.68 µM | IC50 (Collagenase-3 (MMP-13)): 5.73 µM

Molecule: COc1ccc(C(=O)c2ccc([N+](=O)[O-])c(S(N)(=O)=O)c2)cc1 [Example 5, 5-(4-Methoxy-benzoyl)-2-nitro-benzenesulfonamide]
IC50 (Gelatinase (MMP-2)): 1.06 µM | IC50 (Collagenase-3 (MMP-13)): 1.39 µM

Molecule: COc1ccc(C(=O)c2ccc(C)c(S(N)(=O)=O)c2)cc1 [Example 6, 5-(4-Methoxy-benzoyl)-2-methyl-benzenesulfonamide]
IC50 (Gelatinase (MMP-2)): 2.78 µM | IC50 (Collagenase-3 (MMP-13)): 4.51 µM

Molecule: COc1ccc(C(=O)c2ccc(SC)c(S(N)(=O)=O)c2)cc1 [Example 7, 5-(4-Methoxy-benzoyl)-2-methylsulfanyl-benzenesulfonamide]
IC50 (Gelatinase (MMP-2)): 2.36 µM | IC50 (Collagenase-3 (MMP-13)): 3.72 µM

Molecule: COc1ccc(C(=O)c2ccc([S+](C)[O-])c(S(N)(=O)=O)c2)cc1 (stereo not drawn) [Example 8, 2-Methanesulfinyl-5-(4-methoxy-benzoyl)-benzenesulfonamide]
IC50 (Gelatinase (MMP-2)): 4.48 µM | IC50 (Collagenase-3 (MMP-13)): 10.7 µM

Molecule: COc1ccc(C(=O)c2ccc(S(C)(=O)=O)c(S(N)(=O)=O)c2)cc1 [Example 9, 2-Methanesulfonyl-5-(4-methoxy-benzoyl)-benzenesulfonamide]
IC50 (Gelatinase (MMP-2)): 2.93 µM | IC50 (Collagenase-3 (MMP-13)): 11.3 µM

Molecule: Cc1cc(-c2c[nH]c3cc(C(=O)c4cccc(S(N)(=O)=O)c4)ccc23)ccn1 [Example 10, 3-[3-(2-Methyl-pyridin-4-yl)-1H-indole-6-carbonyl]-benzenesulfonamide]
IC50 (Gelatinase (MMP-2)): 3.4 µM | IC50 (Collagenase-3 (MMP-13)): 0.03 µM

Molecule: COCCCc1cc(-c2c[nH]c3cc(C(=O)c4cccc(S(N)(=O)=O)c4)ccc23)ccn1 [Example 11, 3-{3-[2-(3-Methoxy-propyl)-pyridin-4-yl]-1H-indole-6-carbonyl}-benzenesulfonamide]
IC50 (Gelatinase (MMP-2)): 3.95 µM | IC50 (Collagenase-3 (MMP-13)): 0.075 µM

Molecule: COc1ccc(C(=O)c2ccc(Cl)c(S(=O)(=O)NCCc3ccc(F)cc3)c2)cc1 [Example 13, 2-Chloro-N-[2-(4-fluoro-phenyl)-ethyl]-5(4-methoxy-benzoyl)-benzenesulfonamide]
IC50 (Gelatinase (MMP-2)): 8.8 µM | IC50 (Collagenase-3 (MMP-13)): 6.9 µM

Molecule: NS(=O)(=O)c1cccc(C(=O)c2ccc3c(-c4ccnc(CCCN5CCOCC5)c4)c[nH]c3c2)c1 [Example 14, 3-{3-[2-(3-Morpholin-4-yl-propyl)-pyridin-4-yl]-1H-indole-6-carbonyl}-benzenesulfonamide]
IC50 (Gelatinase (MMP-2)): 0.8 µM | IC50 (Collagenase-3 (MMP-13)): 0.01 µM

Molecule: CC(C)COc1ccc(C(=O)c2ccc(Cl)c(S(N)(=O)=O)c2)cc1 [Example 17, 2-Chloro-5-(4-isobutoxy-benzoyl)-benzenesulfonamide]
IC50 (Gelatinase (MMP-2)): 2.3 µM | IC50 (Collagenase-3 (MMP-13)): 3.71 µM

Molecule: CC(C)CCOc1ccc(C(=O)c2ccc(Cl)c(S(N)(=O)=O)c2)cc1 [Example 18, 2-Chloro-5-[4-(3-methyl-butoxy)-benzoyl]-benzenesulfonamide]
IC50 (Gelatinase (MMP-2)): 0.7 µM | IC50 (Collagenase-3 (MMP-13)): 0.6 µM

Molecule: NS(=O)(=O)c1cc(C(=O)c2ccc(OC(F)(F)F)cc2)ccc1Cl [Example 25, 2-Chloro-5-(4-trifluoromethoxy-benzoyl)-benzenesulfonamide]
IC50 (Gelatinase (MMP-2)): 2.17 µM | IC50 (Collagenase-3 (MMP-13)): 5.3 µM

Molecule: CC(C)(C)c1ccc(C(=O)c2ccc(Cl)c(S(N)(=O)=O)c2)cc1 [Example 26, 5-(4-tert-Butyl-benzoyl)-2-chloro-benzenesulfonamide]
IC50 (Gelatinase (MMP-2)): 17.2 µM | IC50 (Collagenase-3 (MMP-13)): 10.5 µM

Molecule: NS(=O)(=O)c1cc(C(=O)c2ccc(C3CCCC3)cc2)ccc1Cl [Example 28, 2-Chloro-5-(4-cyclopentyl-benzoyl)-benzenesulfonamide]
IC50 (Gelatinase (MMP-2)): 4.26 µM | IC50 (Collagenase-3 (MMP-13)): 4.49 µM

Molecule: NS(=O)(=O)c1cc(C(=O)c2ccc(C3CCCCC3)cc2)ccc1Cl [Example 29, 2-Chloro-5-(4-cyclohexyl-benzoyl)-benzenesulfonamide]
IC50 (Gelatinase (MMP-2)): 13.3 µM | IC50 (Collagenase-3 (MMP-13)): 11.3 µM

Molecule: C[Si](C)(C)C#Cc1ccc(C(=O)c2ccc(Cl)c(S(N)(=O)=O)c2)cc1 [Example 30, 2-Chloro-5-(4-trimethyl-silanylethynyl-benzoyl)-benzenesulfonamide]
IC50 (Gelatinase (MMP-2)): 1.23 µM | IC50 (Collagenase-3 (MMP-13)): 1.69 µM

More lines, now with the values ahead:

IC50 (Gelatinase (MMP-2)): 9.13 µM | IC50 (Collagenase-3 (MMP-13)): 3.04 µM
Molecule: COc1ccc(C(=O)c2ccc(Cl)c(S(=O)(=O)NCCc3ccccc3)c2)cc1 [Example 12, 2-Chloro-5-(4-methoxy-benzoyl)-N-phenethyl-benzenesulfonamide]

IC50 (Gelatinase (MMP-2)): 5.16 µM | IC50 (Collagenase-3 (MMP-13)): 10 µM
Molecule: NS(=O)(=O)c1cc(C(=O)c2ccc(O)cc2)ccc1Cl [Example 15, 2-Chloro-5-(4-hydroxy-benzoyl)-benzenesulfonamide]

IC50 (Gelatinase (MMP-2)): 1.58 µM | IC50 (Collagenase-3 (MMP-13)): 1.22 µM
Molecule: NS(=O)(=O)c1cc(C(=O)c2ccc(OCCCc3ccccc3)cc2)ccc1Cl [Example 19, 2-Chloro-5-[4-(3-phenyl-propoxy)-benzoyl]-benzenesulfonamide]

IC50 (Gelatinase (MMP-2)): 11 µM | IC50 (Collagenase-3 (MMP-13)): 13.6 µM
Molecule: CCCCCOc1ccc(C(=O)c2ccc(Cl)c(S(N)(=O)=O)c2)cc1 [Example 20, 2-Chloro-5-(4-pentyloxy-benzoyl)-benzenesulfonamide]

IC50 (Gelatinase (MMP-2)): 4.73 µM | IC50 (Collagenase-3 (MMP-13)): 0.86 µM
Molecule: CCCCCCOc1ccc(C(=O)c2ccc(Cl)c(S(N)(=O)=O)c2)cc1 [Example 21, 2-Chloro-5-(4-hexyloxy-benzoyl)-benzenesulfonamide]

IC50 (Gelatinase (MMP-2)): 14 µM | IC50 (Collagenase-3 (MMP-13)): 2.05 µM
Molecule: NS(=O)(=O)c1cc(C(=O)c2ccc(Br)cc2)ccc1Cl [Example 22, 5-(4-Bromo-benzoyl)-2-chloro-benzenesulfonamide]

IC50 (Gelatinase (MMP-2)): 4.15 µM | IC50 (Collagenase-3 (MMP-13)): 0.95 µM
Molecule: NS(=O)(=O)c1cc(C(=O)c2ccc(Br)cc2)ccc1Cl [Example 23, 5-(4-Bromo-benzoyl)-2-chloro-benzenesulfonamide]

IC50 (Gelatinase (MMP-2)): 9.16 µM | IC50 (Collagenase-3 (MMP-13)): 2.1 µM
Molecule: Cc1cccc(C(=O)c2ccc(Cl)c(S(N)(=O)=O)c2)c1 [Example 24, 2-Chloro-5-(3-methyl-benzoyl)-benzenesulfonamide]

IC50 (Gelatinase (MMP-2)): 8.3 µM | IC50 (Collagenase-3 (MMP-13)): 10 µM
Molecule: NS(=O)(=O)c1cc(C(=O)c2ccc(C#Cc3ccccc3)cc2)ccc1Cl [Example 32, 2-Chloro-5-(4-phenylethynyl-benzoyl)-benzenesulfonamide]

IC50 (Gelatinase (MMP-2)): > 30 µM | IC50 (Collagenase-3 (MMP-13)): 2.59 µM
Molecule: CCCNC(=O)c1ccc(C(=O)c2ccc(Cl)c(S(N)(=O)=O)c2)cc1 [Example 33, 4-(4-Chloro-3-sulfamoyl-benzoyl)-N-propyl-benzamide]

IC50 (Gelatinase (MMP-2)): 2.51 µM | IC50 (Collagenase-3 (MMP-13)): 4.71 µM
Molecule: NS(=O)(=O)c1cc(C(=O)c2ccc(C(=O)Nc3ccccc3)cc2)ccc1Cl [Example 34, 4-(4-Chloro-3-sulfamoyl-benzoyl)-N-phenyl-benzamide]

IC50 (Gelatinase (MMP-2)): > 30 µM
Molecule: CCc1nn(Cc2ccccc2)c2cc(C(=O)c3ccc(Cl)c(S(N)(=O)=O)c3)ccc12 [Example 111, 5-(1-Benzyl-3-ethyl-1H-indazole-6-carbonyl)-2-chloro-benzenesulfonamide]

IC50 (Collagenase-3 (MMP-13)): 0.129 µM
Molecule: NS(=O)(=O)c1cc(C(=O)c2ccc3c(CCC4CCCC4)n[nH]c3c2)ccc1Cl [Example 112, 2-Chloro-5-[3-(2-cyclopentyl-ethyl)-1H-indazole-6-carbonyl]-benzenesulfonamide]

IC50 (Collagenase-3 (MMP-13)): 1.6 µM
Molecule: NS(=O)(=O)c1cc(C(=O)c2ccc3c(-c4ccsc4)c[nH]c3c2)ccc1Cl [Example 127, 2-Chloro-5-(3-thiophen-3-yl-1H-indole-6-carbonyl)-benzenesulfonamide]
